Source: patent publication US20230348376A1 (TEIJIN PHARMA LIMITED, priority 2020, published 2023)

Legend:
[1] = system: rat oligodendrocyte progenitor cells; test: Promotive activity of rat oligodendrocyte progenitor cell differentiation-2 (immunostaining of MBP); type: cell-based; conditions: vitamin D derivative 2 μM, T3 30 nM, 4 days
Method: The promotive activity of oligodendrocyte progenitor cell (OPC) differentiation of the vitamin D derivatives was evaluated by immunostaining of MBP.
Subsequently, oligodendrocyte progenitor cell separation medium was added to the flask, and the mixture was similarly shaken for about 22 hours (37° C., 200 rpm), and the supernatant was collected to prepare oligodendrocyte progenitor cells.

[2] = Evaluation of brain penetration in mice (blood and brain concentration at brain Cmax); type: in vivo, mouse; conditions: 1 mg/kg single oral dose, C57BL/6J mice
Method: The administration solution was administered orally to C57BL/6J mice (8 weeks old, male, n=3) at a single dose (1 mg/kg). Mice were euthanized at 6 points of 0.25, 0.5, 1, 2, 4, and 8 hours after administration, and plasma and brain sampling were performed. After preparing a homogenate from the collected brain using Tissue Lyser II (QIAGEN #85300), acetonitrile was added to the homogenate and the homogenate was centrifuged (12000 rpm, 5 minutes) to extract the administered test compound contained in the brain. Similarly, the plasma was subjected to addition of acetonitrile and centrifugal separation to extract the administered test compound contained in the plasma. Each extracted sample was subjected to measurement of the concentration of administered test compound using LC/MS/MS (SHIMADZU UFLC/MS/MS (8050)).
Test 2 [0.2 mg/kg Administration Study] […] The administration solution was administered orally to C57BL/6J mice (8 weeks old, male, n=3) at a single dose (0.2 mg/kg). Mice were euthanized at 6 points of 0.25, 0.5, 1, 2, 4, and 8 hours after administration, and plasma and brain sampling were performed. After preparing a homogenate from the collected brain using Tissue Lyser II (QIAGEN #85300), acetonitrile was added to the homogenate and the homogenate was centrifuged (12000 rpm, 5 minutes) to extract the administered compound contained in the brain. Similarly, the plasma was subjected to addition of acetonitrile and centrifugal separation to extract the administered test compound contained in the plasma. Each extracted sample was subjected to measurement of the concentration of administered test compound using LC/MS/MS (SHIMADZU UFLC/MS/MS (8050)).

Which “Mean (number of MBP-positive cells/number of Hoechst33342-positive cells)” value ([1]; Test 2) does the source give for `C[C@H](CN1CC[C@@H](OCC(F)F)C1)[C@H]1CC[C@H]2/C(=C/C=C3C[C@@H](O)C[C@H](O)C3)CCC[C@]12C` [Compound B058, (1R,3R)-5-(2-((1R,3aS,7aR,E)-1-((S)-1-((R)-3-(2,2-difluoroethoxy)pyrrolidin-1-yl)propan-2-yl)-7a-methyloctahydro-4H-inden-4-ylidene)ethylidene)cyclohexane-1,3-diol] here?
Its value is 0.49.

What about the “Concentration in blood (mean ± SD) at brain Cmax” value ([2]; n=3) of the same molecule?
Its value is 78 ± 15 nM.

And the “Concentration in brain (mean ± SD) at brain Cmax” value ([2]; n=3)?
Its value is 67 ± 9 pmol/g.

And the Kp ([2]; male, C57BL/6J, mouse, brain/plasma, po, 1 mg/kg, read-out: Concentration in brain/in blood ratio at brain Cmax)?
Its Kp is 0.86.

With `C=C1/C(=C\C=C2/CCC[C@]3(C)[C@@H]([C@H](C)CN4CCC[C@H]4C(C)(C)O)CC[C@@H]23)C[C@@H](O)C[C@@H]1O` [Compound F014, (1R,3S,Z)-5-(2-((1R,3aS,7aR,E)-1-((S)-1-((S)-2-(2-hydroxypropan-2-yl)pyrrolidin-1-yl)propan-2-yl)-7a-methyloctahydro-4H-inden-4-ylidene)ethylidene)-4-methylenecyclohexane-1,3-diol] as the molecule, how does the “Mean (number of MBP-positive cells/number of Hoechst33342-positive cells)” value ([1]; Test 8) read?
The value was 0.29.

Which “Mean (number of MBP-positive cells/number of Hoechst33342-positive cells)” value ([1]; Test 8) does the source give for `C=C1[C@H](O)CC(=C/C=C2\CCC[C@]3(C)[C@@H]([C@H](C)CN4CCC[C@H]4C(C)(C)OC)CC[C@@H]23)C[C@H]1O` [Compound H016, (1R,3R)-5-(2-((1R,3aS,7aR,E)-1-((S)-1-((S)-2-(2-methoxypropan-2-yl)pyrrolidin-1-yl)propan-2-yl)-7a-methyloctahydro-4H-inden-4-ylidene)ethylidene)-2-methylenecyclohexane-1,3-diol] here?
The value was 0.30.

For `C=C1/C(=C\C=C2/CCC[C@]3(C)[C@@H]([C@H](C)CN4CCCCC4(C)C)CC[C@@H]23)C[C@@H](O)C[C@@H]1O` [Compound F003, (1R,3S,Z)-5-(2-((1R,3aS,7aR,E)-1-((S)-1-(2,2-dimethylpiperidin-1-yl)propan-2-yl)-7a-methyloctahydro-4H-inden-4-ylidene)ethylidene)-4-methylenecyclohexane-1,3-diol], which “Mean (number of MBP-positive cells/number of Hoechst33342-positive cells)” value ([1]; Test 7) is on record?
The value was 0.32.

With `C[C@H](CN1CCOCC12CC2)[C@H]1CC[C@H]2/C(=C/C=C3C[C@@H](O)C[C@H](O)C3)CCC[C@]12C` [Compound G007, (1R,3R)-5-(2-((1R,3aS,7aR,E)-1-((S)-1-(7-oxa-4-azaspiro[2.5]octan-4-yl)propan-2-yl)-7a-methyloctahydro-4H-inden-4-ylidene)ethylidene)cyclohexane-1,3-diol] as the molecule, how does the “Mean (number of MBP-positive cells/number of Hoechst33342-positive cells)” value ([1]; Test 4) read?
Its value is 0.34.

With `C=C1/C(=C\C=C2/CCC[C@]3(C)[C@@H]([C@H](C)CN4CCOCC4(C)C)CC[C@@H]23)C[C@@H](O)C[C@H]1O` [Compound I006, (1R,3R,Z)-5-(2-((1R,3aS,7aR,E)-1-((S)-1-(3,3-dimethylmorpholino)propan-2-yl)-7a-methyloctahydro-4H-inden-4-ylidene)ethylidene)-4-methylenecyclohexane-1,3-diol] as the molecule, how does the “Mean (number of MBP-positive cells/number of Hoechst33342-positive cells)” value ([1]; Test 4) read?
The value was 0.51.

With `C=C1/C(=C\C=C2/CCC[C@]3(C)[C@@H]([C@H](C)CN4CCCCC4(C)C)CC[C@@H]23)C[C@@H](O)C[C@H]1O` [Compound I003, (1R,3R,Z)-5-(2-((1R,3aS,7aR,E)-1-((S)-1-(2,2-dimethylpiperidin-1-yl)propan-2-yl)-7a-methyloctahydro-4H-inden-4-ylidene)ethylidene)-4-methylenecyclohexane-1,3-diol] as the molecule, how does the “Mean (number of MBP-positive cells/number of Hoechst33342-positive cells)” value ([1]; Test 9) read?
Its value is 0.33.

Which “Mean (number of MBP-positive cells/number of Hoechst33342-positive cells)” value ([1]; Test 6) does the source give for `C[C@H](CN1CCC[C@@H]1C(C)(C)O)[C@H]1CC[C@H]2/C(=C/C=C3C[C@@H](O)C[C@H](O)C3)CCC[C@]12C` [Compound G013, (1R,3R)-5-(2-((1R,3aS,7aR,E)-1-((S)-1-((R)-2-(2-hydroxypropan-2-yl)pyrrolidin-1-yl)propan-2-yl)-7a-methyloctahydro-4H-inden-4-ylidene)ethylidene)cyclohexane-1,3-diol] here?
Its value is 0.55.

For `C=C1/C(=C\C=C2/CCC[C@]3(C)[C@@H]([C@H](C)CN4CCOC[C@@H]4C)CC[C@@H]23)C[C@@H](O)C[C@H]1O` [Compound I004, (1R,3R,Z)-5-(2-((1R,3aS,7aR,E)-7a-methyl-1-((S)-1-((S)-3-methylmorpholino)propan-2-yl)octahydro-4H-inden-4-ylidene)ethylidene)-4-methylenecyclohexane-1,3-diol], which “Mean (number of MBP-positive cells/number of Hoechst33342-positive cells)” value ([1]; Test 4) is on record?
Its value is 0.44.

With `C[C@H](CN1CCCC[C@H]1C)[C@H]1CC[C@H]2/C(=C/C=C3C[C@@H](O)C[C@H](O)C3)CCC[C@]12C` [Compound G002, (1R,3R)-5-(2-((1R,3aS,7aR,E)-7a-methyl-1-((S)-1-((R)-2-methylpiperidin-1-yl)propan-2-yl)octahydro-4H-inden-4-ylidene)ethylidene)cyclohexane-1,3-diol] as the molecule, how does the “Mean (number of MBP-positive cells/number of Hoechst33342-positive cells)” value ([1]; Test 3) read?
Its value is 0.33.

Which “Mean (number of MBP-positive cells/number of Hoechst33342-positive cells)” value ([1]; Test 4) does the source give for `C=C1/C(=C\C=C2/CCC[C@]3(C)[C@@H]([C@H](C)CN4CCOCC4(C)C)CC[C@@H]23)C[C@@H](O)C[C@@H]1O` [Compound F006, (1R,3S,Z)-5-(2-((1R,3aS,7aR,E)-1-((S)-1-(3,3-dimethylmorpholino)propan-2-yl)-7a-methyloctahydro-4H-inden-4-ylidene)ethylidene)-4-methylenecyclohexane-1,3-diol] here?
Its value is 0.44.

For `C=C1/C(=C\C=C2/CCC[C@]3(C)[C@@H]([C@H](C)CN4CCC[C@H]4C(C)(C)OC)CC[C@@H]23)C[C@@H](O)C[C@@H]1O` [Compound F016, (1R,3S,Z)-5-(2-((1R,3aS,7aR,E)-1-((S)-1-((S)-2-(2-methoxypropan-2-yl)pyrrolidin-1-yl)propan-2-yl)-7a-methyloctahydro-4H-inden-4-ylidene)ethylidene)-4-methylenecyclohexane-1,3-diol], which “Mean (number of MBP-positive cells/number of Hoechst33342-positive cells)” value ([1]; Test 8) is on record?
Its value is 0.32.

Which “Mean (number of MBP-positive cells/number of Hoechst33342-positive cells)” value ([1]; Test 4) does the source give for `C=C1/C(=C\C=C2/CCC[C@]3(C)[C@@H]([C@H](C)CN4CCOC[C@H]4C)CC[C@@H]23)C[C@@H](O)C[C@H]1O` [Compound I005, (1R,3R,Z)-5-(2-((1R,3aS,7aR,E)-7a-methyl-1-((S)-1-((R)-3-methylmorpholino)propan-2-yl)octahydro-4H-inden-4-ylidene)ethylidene)-4-methylenecyclohexane-1,3-diol] here?
The value was 0.43.

With `C[C@H](CN1CCOC[C@@H]1C1CC1)[C@H]1CC[C@H]2/C(=C/C=C3C[C@@H](O)C[C@H](O)C3)CCC[C@]12C` [Compound G008, (1R,3R)-5-(2-((1R,3aS,7aR,E)-1-((S)-1-((S)-3-cyclopropylmorpholino)propan-2-yl)-7a-methyloctahydro-4H-inden-4-ylidene)ethylidene)cyclohexane-1,3-diol] as the molecule, how does the “Mean (number of MBP-positive cells/number of Hoechst33342-positive cells)” value ([1]; Test 5) read?
The value was 0.36.

For `C=C1/C(=C\C=C2/CCC[C@]3(C)[C@@H]([C@H](C)CN4CCCC[C@@H]4C)CC[C@@H]23)C[C@@H](O)C[C@H]1O` [Compound I001, (1R,3R,Z)-5-(2-((1R,3aS,7aR,E)-7a-methyl-1-((S)-1-((S)-2-methylpiperidin-1-yl)propan-2-yl)octahydro-4H-inden-4-ylidene)ethylidene)-4-methylenecyclohexane-1,3-diol], which “Mean (number of MBP-positive cells/number of Hoechst33342-positive cells)” value ([1]; Test 9) is on record?
Its value is 0.30.

With `C=C1/C(=C\C=C2/CCC[C@]3(C)[C@@H]([C@H](C)CN4CCCC[C@H]4C)CC[C@@H]23)C[C@@H](O)C[C@@H]1O` [Compound F002, (1R,3S,Z)-5-(2-((1R,3aS,7aR,E)-7a-methyl-1-((S)-1-((R)-2-methylpiperidin-1-yl)propan-2-yl)octahydro-4H-inden-4-ylidene)ethylidene)-4-methylenecyclohexane-1,3-diol] as the molecule, how does the “Mean (number of MBP-positive cells/number of Hoechst33342-positive cells)” value ([1]; Test 7) read?
The value was 0.31.

For `C=C1/C(=C\C=C2/CCC[C@]3(C)[C@@H]([C@H](C)CN4CCC[C@@H]4C(C)(C)O)CC[C@@H]23)C[C@@H](O)C[C@@H]1O` [Compound F013, (1R,3S,Z)-5-(2-((1R,3aS,7aR,E)-1-((S)-1-((R)-2-(2-hydroxypropan-2-yl)pyrrolidin-1-yl)propan-2-yl)-7a-methyloctahydro-4H-inden-4-ylidene)ethylidene)-4-methylenecyclohexane-1,3-diol], which “Mean (number of MBP-positive cells/number of Hoechst33342-positive cells)” value ([1]; Test 9) is on record?
Its value is 0.31.

With `C=C1[C@H](O)CC(=C/C=C2\CCC[C@]3(C)[C@@H]([C@H](C)CN4CCCCC4(C)C)CC[C@@H]23)C[C@H]1O` [Compound H003, (1R,3R)-5-(2-((1R,3aS,7aR,E)-1-((S)-1-(2,2-dimethylpiperidin-1-yl)propan-2-yl)-7a-methyloctahydro-4H-inden-4-ylidene)ethylidene)-2-methylenecyclohexane-1,3-diol] as the molecule, how does the “Mean (number of MBP-positive cells/number of Hoechst33342-positive cells)” value ([1]; Test 9) read?
The value was 0.30.
